The values below come from the Deep4Chem optical property database.

The series is described as follows: solvent given as SMILES.

`CCCCCCCCCCCCSc1cc2c3c(ccc4c5c(SCCCCCCCCCCCC)cc6c7c(ccc(c1c34)c75)C(=O)N(C1CCCCC1)C6=O)C(=O)N(C1CCCCC1)C2=O` registered an absorption maximum (in ClC(Cl)Cl) of 574 nm.

In turn, `COc1cc2cc(C#Cc3ccc(/C=C(\C#N)C(=O)O)cc3)c(=O)oc2cc1OC` gave an absorption maximum (in CC#N) of 398 nm.

For `c1ccc(C(=C(c2ccccc2)c2ccc(-c3ccc(-c4nc5c(-c6ccc(-c7ccc(C(=C(c8ccccc8)c8ccccc8)c8ccccc8)cc7)cc6)sc(-c6ccc(-c7ccc(C(=C(c8ccccc8)c8ccccc8)c8ccccc8)cc7)cc6)c5nc4-c4ccc(-c5ccc(C(=C(c6ccccc6)c6ccccc6)c6ccccc6)cc5)cc4)cc3)cc2)c2ccccc2)cc1`, the absorption maximum is, setting by setting: (in Cc1ccccc1) 530 nm; (in ClCCl) 520 nm.

Take `CCCCCCN1C(=O)c2cccc3c(-c4ccc(-c5cc(-c6ccc(OC)cc6)n(-c6ccccc6)n5)s4)ccc(c23)C1=O`: the absorption maximum (in ClCCl) stood at 403 nm.

Turning to `CC(C)[Si](C#Cc1c2cc3ccccc3cc2c(C#C[Si](C(C)C)(C(C)C)C(C)C)c2nc3c(ccc4cc5ccccc5cc43)nc12)(C(C)C)C(C)C`, the absorption maximum (in CCCCCC) is given as 644 nm.

In the case of `COc1cc2sc3nc(-c4ccccc4)sc3c2cc1OC`, the absorption maximum (in CS(C)=O) stood at 360 nm.

On to `CC(C)(C)c1ccc2c(c1)c1cc(C(C)(C)C)ccc1n2-c1ccc(C(=O)c2ccncc2)cc1`, for which the absorption maximum runs as follows: (in C1CCOC1) 367.32 nm; (in CCCCCC) 372.17 nm; (in Cc1ccccc1) 373.66 nm; (in ClCCl) 377.92 nm.

Consider `O=C1Cc2cc3c(cc2CCCc2ccc(cc2)CCC3)CC(=O)Cc2ccc(c3nsnc23)C1`, for which the absorption maximum reads like this: (in C1CCCCC1) 401 nm; (in CC#N) 404 nm; (in ClC(Cl)Cl) 404 nm.

On to `c1ccc2c(c1)-c1ccccc1C21c2ccccc2-c2cnccc21`, for which the absorption maximum (in CC1CCCO1) is reported as 305 nm.

In turn, `COc1ccc(-c2nc(/C(C#N)=C/c3ccc(Cl)cc3)sc2-c2ccc(OC)cc2)cc1` came in with an absorption maximum (in CC#N) of 394 nm.

Compound `COc1cccc(OC)c1-c1c2ccc(=[N+]3CCN(C(=O)OC(C)(C)C)CC3)cc-2oc2cc(N3CCN(C(=O)OC(C)(C)C)CC3)ccc12` gave an absorption maximum (in ClCCl) of 555 nm.

Regarding `CCN(CC)c1cccc(C=O)c1`, the absorption maximum reads like this: (in CC#N) 380 nm; (in CC(C)O) 382 nm; (in CCCCCC) 367 nm; (in CCOC(C)=O) 376 nm; (in CO) 382 nm; (in CS(C)=O) 384 nm. The absorption maximum is recorded as 380 nm (in Cc1ccccc1) and 382 nm (in ClCCl).

With `COC(=O)C(NC(=O)OC(C)(C)C)c1ccc2oc(-c3ccc(C#N)cc3)nc2c1` (stereo not given), the absorption maximum came out at 337 nm (in CC1CCCCC1), 333 nm (in CC#N) and 317 nm (in CO).

As for `CCOC(=O)C(C(=O)OCC)C1=[N+]2C(=C(c3ccc(C)cc3)c3ccc(C(C(=O)OCC)C(=O)OCC)n3[B-]2(F)F)C=C1`, the absorption maximum is, setting by setting: (in C1CCCCC1) 515 nm; (in C1CCOC1) 512 nm; (in CCOC(C)=O) 510 nm; (in CO) 509 nm; (in Cc1ccccc1) 514 nm; (in ClC(Cl)Cl) 513 nm.

Consider `O=C(c1ccccc1)c1cc2ccc1CCc1ccc(c(-c3ccc(N(c4ccccc4)c4ccccc4)cc3)c1)CC2`, for which the absorption maximum (in Cc1ccccc1) stood at 312 nm.

For the compound `CC(C)(C)c1ccc(C(C)(C)C)c(N2C(=O)c3cccc4c(-c5ccc(-c6ccc([N+](=O)[O-])cc6)s5)ccc(c34)C2=O)c1`, the absorption maximum came out at 393 nm (in CO), 400 nm (in CS(C)=O) and 392 nm (in Cc1ccccc1).

In turn, `c1ccc(-n2c(-c3ccccc3-n3c4ccccc4c4ccccc43)nc3ccccc32)cc1` displayed an absorption maximum (in C1CCOC1) of 352 nm.

In turn, `COc1ccc2cc(/C=C/c3nc(/C=C/c4ccc(N(c5ccccc5)c5ccccc5)cc4)cc(/C=C/c4ccc(N(c5ccccc5)c5ccccc5)cc4)n3)ccc2c1` had an absorption maximum (in ClCCl) of 424 nm.
